Data taken from ChEMBL document CHEMBL4390686, “Design, Synthesis, and Pharmacokinetic Evaluation of Phosphate and Amino Acid Ester Prodrugs for Improving the Oral Bioavailability of the HIV-1 Protease Inhibitor Atazanavir” (J Med Chem, 2019).
In brackets after ≈: the same amount, converted by molar mass.

Tests used:
[1] = Cmin in cannulated Sprague-Dawley rat assessed as atazanavir level at 6 mg/kg equiv of atazanavir administered orally measured after 24 hrs by UPLC/MS/MS analysis; format: ADME, organism-based; details: in vivo, po, BLD = below limit of detection
[2] = biological target: Protease (Human immunodeficiency virus 1, UniProt Q9YQ12)
Description: Inhibition of HIV1 protease activity

[3] = Drug metabolism in cannulated Sprague-Dawley rat assessed as prodrug to atazanavir ratio at 6 mg/kg equiv of atazanavir administered orally by UPLC/MS/MS analysis; format: ADME, organism-based; details: in vivo, po
[4] = Prodrug conversion in rat hepatocytes assessed as pseudo first order rate constant for atazanavir formation at 1 uM in absence of esterase inhibitor PMSF/CYP450 inhibitor ABT; format: ADME, cell-based, Hepatocyte
[5] = in vitro; details: human, Caco-2
Description: Efflux ratio of apparent permeability across basolateral to apical side over apical to basolateral side in human Caco2 cells

[6] = Total AUC in cannulated Sprague-Dawley rat assessed as atazanavir level at 30 mg/kg equiv of atazanavir administered orally by UPLC/MS/MS analysis relative to atazanavir alone; format: ADME, organism-based; details: in vivo, po
[7] = Elimination half life in rat hepatocytes at 1 uM in presence of CYP450 inhibitor ABT; format: ADME, cell-based, Hepatocyte; details: with ABT (CYP450 inhibitor), read-out: beta t1/2
[8] = Aqueous solubility of the compound in FeSSIF by RP-HPLC analysis; format: physicochemical
[9] = Ratio of test compound to atazanavir aqueous solubility in pH 6.5 phosphate buffer by RP-UPLC analysis; format: physicochemical
[10] = Elimination half life in rat hepatocytes at 1 uM in presence of esterase inhibitor PMSF/CYP450 inhibitor ABT; format: ADME, cell-based, Hepatocyte; details: read-out: beta t1/2
[11] = system: Human immunodeficiency virus 1
Description: Antiviral activity against HIV1 NL4-3 infected in human MT2 cells assessed as reduction in viral yield measured after 4 days by EnduRen live cell substrate based luciferase reporter gene assay

[12] = Prodrug conversion in rat hepatocytes assessed as pseudo first order rate constant for atazanavir formation at 1 uM in presence of esterase inhibitor PMSF; format: ADME, cell-based, Hepatocyte
[13] = Prodrug conversion in rat hepatocytes assessed as pseudo first order rate constant for atazanavir formation at 1 uM in presence of CYP450 inhibitor ABT; format: ADME, cell-based, Hepatocyte
[14] = Tmax in cannulated Sprague-Dawley rat assessed as atazanavir level at 6 mg/kg equiv of atazanavir administered orally by UPLC/MS/MS analysis; format: ADME, organism-based; details: in vivo, po
[15] = biological target: T1, UDP-glucuronosyltransferase 1A1 (Homo sapiens, UniProt P22309); test: Inhibition of recombinant human UGT1A1 using bilirubin as substrate preincubated for 5 mins followed by substrate addition and measured after 40 mins by LC-MS/MS analysis; format: ADME
T1 sequence (P22309 whole entry): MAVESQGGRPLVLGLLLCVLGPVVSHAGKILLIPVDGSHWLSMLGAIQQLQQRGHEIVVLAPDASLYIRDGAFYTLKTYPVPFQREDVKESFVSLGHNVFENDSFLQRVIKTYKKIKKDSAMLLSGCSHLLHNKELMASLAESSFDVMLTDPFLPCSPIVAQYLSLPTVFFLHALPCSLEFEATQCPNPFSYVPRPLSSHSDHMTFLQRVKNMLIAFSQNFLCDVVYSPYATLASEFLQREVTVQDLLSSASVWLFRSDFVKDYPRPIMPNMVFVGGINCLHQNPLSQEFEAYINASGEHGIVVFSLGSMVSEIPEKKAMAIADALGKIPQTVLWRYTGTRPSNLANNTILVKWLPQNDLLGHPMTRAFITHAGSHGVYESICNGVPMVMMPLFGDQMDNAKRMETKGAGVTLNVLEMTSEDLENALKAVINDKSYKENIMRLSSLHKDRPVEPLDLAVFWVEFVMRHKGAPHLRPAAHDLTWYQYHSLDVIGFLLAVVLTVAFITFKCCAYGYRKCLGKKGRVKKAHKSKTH

[16] = biological target: T1, UDP-glucuronosyltransferase 1A1; test: Inhibition of UGT1A1 in human liver microsomes using beta-estradiol as substrate preincubated for 5 mins followed by substrate addition and measured after 40 mins by LC-MS/MS analysis; format: ADME
[17] = rat, in vivo, po, 3 mg/kg
Description: AUClast in cannulated Sprague-Dawley rat assessed as atazanavir level at 3 mg/kg equiv of atazanavir administered orally by UPLC/MS/MS analysis

[18] = Ratio of test compound to atazanavir aqueous solubility in pH 3 buffer by RP-UPLC analysis; format: physicochemical
[19] = Elimination half life in rat hepatocytes at 1 uM in presence of esterase inhibitor PMSF; format: ADME, cell-based, Hepatocyte; details: with PMSF (esterase inhibitor), read-out: beta t1/2
[20] = Half life in rat whole blood at 1 uM by UPLC-MS/MS analysis; format: ADME, tissue-based
[21] = Ratio of test compound to atazanavir aqueous solubility in pH 4 citrate buffer by RP-UPLC analysis; format: physicochemical
[22] = Elimination half life in rat hepatocytes at 1 uM in absence of esterase inhibitor PMSF/CYP450 inhibitor ABT; format: ADME, cell-based, Hepatocyte; details: read-out: beta t1/2
[23] = rat, in vivo, po, 3 mg/kg; remark: listed apart in the source
[24] = biological target: T2, UDP-glucuronosyltransferase 1A1 (Rattus norvegicus, UniProt Q64550); test: Inhibition of UGT1A1 in rat liver microsomes using beta-estradiol as substrate preincubated for 5 mins followed by substrate addition and measured after 40 mins by LC-MS/MS analysis; format: ADME
T2 sequence (Q64550 whole entry): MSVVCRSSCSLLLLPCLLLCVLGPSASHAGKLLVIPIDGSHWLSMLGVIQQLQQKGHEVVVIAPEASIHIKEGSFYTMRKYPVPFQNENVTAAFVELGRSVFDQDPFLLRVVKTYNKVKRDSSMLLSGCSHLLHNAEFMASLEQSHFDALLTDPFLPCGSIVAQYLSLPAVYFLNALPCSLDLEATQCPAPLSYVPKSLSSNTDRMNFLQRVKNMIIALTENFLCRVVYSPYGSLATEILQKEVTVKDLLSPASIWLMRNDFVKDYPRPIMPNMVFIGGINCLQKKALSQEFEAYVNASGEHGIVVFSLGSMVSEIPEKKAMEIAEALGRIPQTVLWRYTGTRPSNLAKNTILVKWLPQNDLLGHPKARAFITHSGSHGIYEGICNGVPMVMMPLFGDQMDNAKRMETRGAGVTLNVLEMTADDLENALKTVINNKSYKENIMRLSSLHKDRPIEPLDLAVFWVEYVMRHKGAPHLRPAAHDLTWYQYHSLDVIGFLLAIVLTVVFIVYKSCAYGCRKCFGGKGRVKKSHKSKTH

[25] = in vitro; details: human, Caco-2; remark: listed apart in the source
Description: Apparent permeability across basolateral to apical side in human Caco2 cells at 2 uM

[26] = Cmin in cannulated Sprague-Dawley rat assessed as atazanavir level at 3 mg/kg equiv of atazanavir administered orally measured after 24 hrs by UPLC/MS/MS analysis; format: ADME, organism-based; details: in vivo, po, BLD = below limit of detection
[27] = system: UGT1A1; test: Ratio of test compound IC50 to atazanavir IC50 for recombinant cynomolgus monkey UGT1A1; format: ADME, Macaca fascicularis; details: read-out: Ratio IC50
[28] = Ratio of test compound to atazanavir aqueous solubility in pH 5 buffer by RP-UPLC analysis; format: physicochemical
[29] = physchem; details: acetate buffer, pH 4
Description: Aqueous solubility of the compound in pH 4 acetate buffer by RP-UPLC analysis

[30] = Aqueous solubility of the compound in FaSSIF by RP-HPLC analysis; format: physicochemical

Sequence of Protease (Q9YQ12 whole entry): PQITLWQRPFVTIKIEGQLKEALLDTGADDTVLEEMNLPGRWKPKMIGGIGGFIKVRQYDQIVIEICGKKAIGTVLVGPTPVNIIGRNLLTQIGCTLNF

In the case of COC(=O)N[C@H](C(=O)N[C@@H](Cc1ccccc1)[C@H](CN(Cc1ccc(-c2ccccn2)cc1)NC(=O)[C@@H](NC(=O)OC)C(C)(C)C)OC(=O)[C@@H](N)Cc1ccccc1)C(C)(C)C, the Cmin [1] is reported as “Bld”, the IC50 [2] is reported as 4 to 1140 nM and the Ratio [3] is reported as 0.7. The K [4] was 0.0164 min⁻¹, the efflux ratio [5] was over 8.7 and the “fold change (FC)” value [6] was 65.3. It also gave a half-life at 1 µM [7] of over 2 h, a solubility [8] of over 500 µg/mL and a Ratio [9] of 27. It also gave a half-life at 1 µM [10] of over 2 h, an EC50 [11] of 0.9 to 1250 nM and a K [12] of 0.0009 min⁻¹. For the same molecule, the K [13] was 0.0042 min⁻¹, the Tmax [14] was 0.5 h and the IC50 [15] was 2800 nM. For the same molecule, the IC50 [16] was 2500 nM, the AUClast [17] was 0.573 µM·h and the Ratio [18] was 114. The half-life at 1 µM [19] was 1.28 h, the half-life at 1 µM [20] was over 2 h and the Ratio [21] was 1100. It also gave a half-life at 1 µM [22] of 0.7 h, a Cmax [23] of 456 nM and an IC50 [24] of 19500 nM. For the same molecule, the Papp B→A at 2 µM [25] was 13.1 ×10⁻⁶ cm/s, the Cmin [26] was “Bld” and the selectivity ratio [27] was 17. The Ratio [28] was 1300, the solubility [29] was 1100 to 4100 µg/mL (≈ 1290 to 4810 µM) and the solubility [30] was 130 µg/mL (≈ 153 µM).
